Test results reported in patent US20230172923A1, “METHODS OF TREATING CYTOKINE-RELATED ADVERSE EVENTS” (BRISTOL-MYERS SQUIBB COMPANY, priority 2020, published 2023).

Columns and labels:
IL-6 [1] = assay: LPS-induced IL-6 secretion from monocytes with nigericin (MSD); format: cell-based, human; settings: overnight 1 nM, 10 nM or 100 nM Compound 1; LPS 4 hours, then 5 µg/ml nigericin 1 hour
Method: Monocytes from healthy volunteers were seeded at a concentration of 1×10^6 cells/ml and treated with the indicated concentration of Compound 1 overnight. The next morning, the monocytes were incubated with the indicated concentration of LPS for 4 hours, and then stimulation with 5 ug/ml of nigericin for 1 hour, before IL-6 levels in the supernatant were assessed using an MSD assay.
Monocytes from two healthy human donors were isolated as in Example 1. Here isolated monocytes (1×10^6 cells/ml) were treated with various concentrations of Compound 1 (1 nM, 10 nM, or 100 nM), or control DMSO (0.001%), overnight (~17 hours) before stimulation with various concentrations of LPS.
After 4 hours, 5 µg/ml of nigericin was added to activate the inflammasome for 1 hour, supernatants were harvested, and MSD analysis was performed to quantify secreted IL-6.

IL-6 [2] = assay: CC-93269-induced IL-6 secretion, co-culture of PBMCs and H929 multiple myeloma cells (MSD); format: cell-based, human; settings: 1 nM Compound 1 pre-treatment overnight, washed out; two donors
Method: Fresh PBMCs were isolated from healthy volunteers, the percentage of CD3+ T-cells (total) was quantified by flow cytometry, and the PBMCs were treated with 1 nM Compound 1 (CC-92480) or control DMSO overnight. The next morning, target H929 cells were added to the wells at a ratio of 5:1, T-cells to target cells, followed by addition of CC-93269 at indicated concentrations. At 6-, 24- and 48-hours post-incubation, the cell culture was collected and levels of IL-6 in the supernatant were assessed using an MSD assay.
Fresh PBMCs were isolated from the blood (buffy coat) of human volunteers by Ficoll based cell separation. The percentage of CD3+ T-cells (total) in the PBMCs was quantified by flow cytometry. The isolated PBMCs were seeded in 12 well plates at a concentration of 1.5×10^6 cells/ml and treated with 1 nM Compound 1 (CC-92480) or control DMSO overnight (~17 hours). After overnight incubation, the cells were washed to remove CC-92480, before target H929 cells were added to the wells at a ratio of 5:1, T-cells to target cells. […]
The co-culture was then incubated with CC-93269 at various concentrations. At 6, 24 and 48 hours post-incubation, the cell culture media was collected from all samples, spun down at 300 g for 5 minutes to remove cells and the supernatant was subjected to cytokine analysis to quantify secreted levels of IL-6 using an MSD assay. […]

SMILES: N#Cc1ccc(N2CCN(Cc3ccc(COc4cccc5c4CN(C4CCC(=O)NC4=O)C5=O)cc3)CC2)c(F)c1 (stereo not drawn) [Compound 1, 4-(4-(4-(((2-(2,6-dioxopiperidin-3-yl)-1-oxoisoindolin-4-yl)oxy)methyl)benzyl)piperazin-l-yl)-3-fluorobenzonitrile]
- LPS-induced IL-6 secretion from monocytes (IL-6 [1]): diminished
- secretion of IL-6 associated with CC-93269 activity, PBMCs + multiple myeloma cells (H929) (IL-6 [2]): diminished/attenuated
